Laboratory results published in US20210137897A1, “TOPICAL mTOR INHIBITORS FOR CUTANEOUS PROLIFERATIVE AND VASCULAR CONDITIONS” (GEORGETOWN UNIVERSITY, priority 2019, published 2021).

Assays:
[1] = Sirolimus blood levels during topical treatment of the non-LCH patient; assay type: in vivo, human; details: at 1 month; topical rapamycin (1%) ointment to left face
Description: Topical rapamycin (1%) compounded in ointment was initiated to the left face with the right face serving as a control. Sirolimus blood levels were negative at 1 month.

[2] = system: venolymphatic malformation; assay: Case report: topical 1% sirolimus cream in venolymphatic malformation; assay type: in vivo, human
Description: A person presented with a birthmark on the left thigh, present since birth. […] Clinically, it appeared most consistent with a mixed venolymphatic malformation, possibly with a small capillary component to it. Over the last few years, it began scabbing and occasionally bleeding at the surface. The deeper areas sometimes caused a throbbing pain. A decision was made to start treatment with topical 1% sirolimus cream twice a day. After 1.5 to 2 months treatment, the birthmark started to improve. Before starting topical sirolimus, they had painful episodes (6/10 severity) 2-3× per week that lasted 15-20 minutes. […] Additionally, overall the lesion was much flatter since starting the topical sirolimus. Their quality of life improved now that they were is in much less pain.
Previous reports have shown effectiveness of oral sirolimus in the treatment of venolymphatic malformations; however, to the best of inventor's knowledge, topical treatment has never been reported. This patient's venolymphatic malformation improved both symptomatically and improved in appearance with topical 1% rapamycin treatment. […] Additionally, inventor expects that all superficial or cutaneous vascular malformations and cutaenous vascular conditions would respond to treatment with topical mTOR inhibitor.

[3] = system: capillary malformation-arteriovenous malformation (CM-AVM) syndrome; assay: Case report: topical 1% rapamycin cream in CM-AVM syndrome; assay type: in vivo, human; details: topical 1% rapamycin cream twice a day to the face
Description: A person presented with several well demarcated pink to slightly tan patches with perilesional halos/rims of pallor scattered on their body, including one on their face. Many of those birthmarks were present since birth or at least since a very young age. The patient's parent also had similar-appearing birthmarks. The patient was otherwise well. Genetic testing confirmed a pathogenic variant identified in RASA1 gene consistent with capillary malformation-arteriovenous malformation (CM-AVM) syndrome. Per the patient and their parent's interest in a topical treatment, off-label use of topical 1% rapamycin cream was used twice a day to the lesion on the face.

[4] = system: keloids; assay: Case report: 1% topical rapamycin on keloidal, contracted burn scar; assay type: in vivo, human; details: 1% topical rapamycin one to two times a day on thigh scar
Description: As an adjuvant treatment, they treated their worst keloidal, contracted scar on their thigh with 1% topical rapamycin one to two times a day.

[5] = system: confluent and reticulated papillomatosis (CARP); assay: Case report: topical 1% rapamycin cream in confluent and reticulated papillomatosis; assay type: in vivo, human; details: 1% rapamycin cream twice a day for 3 months
Description: FIG. 1A is a photographic image of the chest of a patient afflicted with confluent and reticulated papillomatosis (CARP) before starting 3 months' treatment with topically applied 1% rapamycin (sirolimus).
FIG. 1B is a photographic image of the chest of the patient in FIG. 1A following 3 months' treatment with topically applied 1% rapamycin (sirolimus).
A person was initially diagnosed with CARP in October 2015 when they presented with numerous hyperpigmented, slightly velvety macules with a fine overlying scale coalescing into reticulated and confluent patches on their chest, neck, and upper back. […] They then embarked upon a course of topical 1% rapamycin cream applied to affected areas twice a day for 3 months. […] Pre- and post treatment photographs are presented as FIGS. 1A and 1B, respectively.

[6] = cited from earlier work
[7] = system: Langerhans cell histiocytosis, multisystem disease; details: in combination with a single dose of methylprednisolone; cited from earlier work

Structure (SMILES) | Sirolimus blood levels [1] | duration of pain episode ([2]; after 1-2 months of topical 1% sirolimus, before treatment 15-20 minutes) | treatment time until the birthmark started to improve ([2]; person, topical 1% sirolimus cream twice a day) | tolerability [3] | tolerability [4] | local tolerability at the site of application [5] | water solubility [6] | disease response [7] | reactivation [7] | survival [7] | toxicity [7]
CO[C@H]1C[C@@H]2CC[C@@H](C)[C@@](O)(O2)C(=O)C(=O)N2CCCC[C@H]2C(=O)O[C@H]([C@H](C)C[C@@H]2CC[C@@H](O)[C@H](OC)C2)CC(=O)[C@H](C)/C=C(\C)[C@@H](O)[C@@H](OC)C(=O)[C@H](C)C[C@H](C)/C=C/C=C/C=C/1C [sirolimus, Sirolimus] | negative | about 10 minutes | 1.5 to 2 months | tolerated well without side effects | tolerated the treatment well without any known side effects | denied having any itching, burning, or pain | poorly water soluble | – | – | – | –
CC[C@]1(O)C[C@@H]2CN(CCc3c([nH]c4ccccc34)[C@@](C(=O)OC)(c3cc4c(cc3OC)N(C)[C@H]3[C@@](O)(C(=O)OC)[C@H](OC(C)=O)[C@]5(CC)C=CCN6CC[C@]43[C@@H]65)C2)C1 [vinblastine] | – | – | – | – | – | – | – | 58% | 61% | 76% | 47%
COc1cc([C@@H]2c3cc4c(cc3[C@@H](O[C@@H]3O[C@@H]5CO[C@@H](C)O[C@H]5[C@H](O)[C@H]3O)[C@H]3COC(=O)[C@H]23)OCO4)cc(OC)c1O [etoposide] | – | – | – | – | – | – | – | 65% | 55% | 83% | 58%
